Laboratory results: patent US11535590B2, “Sulfonium salt photoinitiator, preparation method therefor, photocurable composition comprising sulfonium salt photoinitiator, and use thereof” (CHANGZHOU TRONLY NEW ELECTRONIC MATERIALS CO., LTD., priority 2017, dated 2022)
Like-named read-outs stand apart in the source and are kept apart here.

Test: Evaluation of solubilities of photoinitiators in cationic active diluents
Type: physicochemical
Details: for Solubility in DOX: diluent DOX: 3,3′-[oxybismethylene]bis[3-ethyl] oxetane; for Solubility in DVE-3: diluent DVE-3: triethyleneglycol divinyl ether; for Solubility in Epoxy resin 6110: diluent Epoxy resin 6110: 3.4-epoxycyclohexylmethyl-3,4-epoxycyclohexyl carboxylate
[1] = diluent POX: 3-ethyl-3-(phenoxymethyl) oxetane

Solubility in DOX [%]	Solubility in DVE-3 [%]	Solubility in Epoxy resin 6110 [%]	Solubility in POX [1] [%]	Solubility in POX [%]	Compound
>10	>10	>10	>10		COC(=O)C(=O)c1ccc(Sc2ccc([S+](c3ccc(Sc4ccc(C(=O)C(=O)OC)cc4)cc3)c3ccc(Sc4ccc(C(=O)C(=O)OC)cc4)cc3)cc2)cc1 [Compound 1]
>10	>10	>10	>10		CCOC(=O)C(=O)c1ccc(Oc2ccc([S+](c3ccccc3)c3ccccc3)cc2)cc1 [Compound 2]
>10	>10	>10	>10		CCOC(=O)C(=O)c1ccc(Oc2ccc([S+](c3ccc(C)cc3)c3ccc(C)cc3)cc2)cc1 [Compound 7]
<2	<2	<2		<2	[F][Sb-]([F])([F])([F])([F])[F].[F][Sb-]([F])([F])([F])([F])[F].c1ccc([S+](c2ccccc2)c2ccc(Sc3ccc([S+](c4ccccc4)c4ccccc4)cc3)cc2)cc1 [UVI6976, bis(4,4′-thioethertriphenylsulfonium) hexafluoroantimonate, reference compound]

Compound	Solubility in DOX [%]	Solubility in DVE-3 [%]	Solubility in Epoxy resin 6110 [%]	Solubility in POX [1] [%]	Solubility in POX [%]
phenylthiophenyl diphenylsulfonium hexafluoroantimonate [UVI6992, reference compound]	<2	<2	<2	<2	
